# According to patent publication US6455576B1, “Macrolides with anti-inflammatory activity” (Zambon Group S.p.A., priority 1999, dated 2002):
# Where two headings read alike, the source gives them in different places.
# Key:
# IL-8 release = experiment: In vitro inhibition of LPS-induced IL-8 release in ECV304 endothelial cells (ELISA); type: cell-based, human; conditions: for IC50: 1 hour pre-incubation, supernatant after one night, concentration giving 50% of highest obtainable inhibition, read-out: IL-8 release potency IC50; for IL-8 release efficacy (%): highest obtainable inhibition
# Description: A) Release of Interleukin 8 (IL-8)
# A human endothelial immortalized cell line (ECV304) was obtained from ATTC (Rockville, Md.) and grown in Medium 199, mod. Earle's salts (GIBCO, Life Technologies, Grand Island, N.Y.), supplemented with 20% Fetal Calf Serum (GIBCO), 100 U/ml of penicillin and 100 µg/ml of streptomycin (SIGMA, St. Louis, Mo.) in wet atmosphere with 5% CO2 at 37° C.
# The cells were cultivated on 96 well plates up to obtain a confluent monolayer. The compounds to be evaluated were dissolved in DMSO at 10^−2M and diluted with culture medium.
# The compounds were pre-incubated with the cells 1 hour before the challenge.
# The release of IL-8 was induced by adding 0.66 µg/ml of lipopolysaccharide B (E. coli 055:B5, Difco, Detroit, Mich.) in a final volume of 200 µl.
# After one night, the supernatant was collected for the IL-8 test.
# The specific immunoreactivity for IL-8 in the culture supernatant was measured with ELISA kit (Amersham, UK).
# Results were expressed as the highest obtainable inhibition (efficacy) and, whether possible, as the concentration at which 50% of such effect (TC50) is obtained.
# superoxide anion release = experiment: In vitro inhibition of FMLP-stimulated superoxide anion release from neutrophils (Lucigenin-enhanced chemiluminescence); type: cell-based, human; conditions: neutrophils of healthy volunteers, 30 minutes pre-incubation at 37° C., FLMP stimulation, read-out: O2 release IC50
# Description: B) Release of Superoxide Anions
# Neutrophils were separated from venous blood of healthy volunteers by centrifugation on Ficoll-Hypaque, followed by sedimentation on 6% dextrane and osmotic lysis of erythrocytes. Neutrophils were then washed and resuspended in a medium made of RPMI-1640 supplemented with 5% foetal calf serum and 1.34 mmoles/l of disodium dihydrate EDTA. The cells were maintained for 24 hours at 4° C. and before the test the suspension was centrifugated and resuspended in HBSS (Hanks' balanced salt solution). The vitality and the purity of the neutrophil preparation was verified by dyeing with Trypan blue and Turk blue.
# The superoxide anions were measured by using Lucigenin (bis-N-methylacridinium nitrate)-enhanced chemiluminescence technique.
# Neutrophils (2×10^6 cells/ml) were pre-incubated for 30 minutes at 37° C. in 900 µl of HBSS with and without the tested compound (reading system).
# The production of superoxide anions was measured with a Lumac/3M bio-counter after addition of 100 µl of a solution in HBSS of Lucigenin (2 mmoles/l) and N-formyl-L-methionyl-L-leucyl-L-phenylalanine (FLMP) as stimulating agent at the concentration of […] to the reading system. FLMP was dissolved in DMSO (1×10^−2 M) and further diluted in HBSS. The compound to be tested was dissolved in DMSO at the concentration of 10^−2 M. Lower concentrations, in DMSO, were prepared from that solution, and tested. The DMSO amount present in the reading system was lower than 1%.
# The luminosity values obtained at the peak, for each tested concentration of the compound, were transformed in inhibition percentage in comparison with the reference.
# The concentration able to inhibit the production of superoxide anion at 50% (IC50) was calculated from the obtained “dose-response” curve.
# [1] = test system: neutrophilia induced by LPS; experiment: In vivo inhibition of neutrophilia induced by LPS after repeated administrations (bronchoalveolar lavage); set-up: species or system rat; conditions: Sprague-Dawley rats, compound i.p. twice a day for 6 days and 7th day 1 hour before and 5 hours after LPS 6 mg/kg i.p.; BALF 24 hours after LPS
# Description: In vivo Pharmacological Activity
# Male Sprague-Dawley rats weighing between 200 and 300 g were used.
# The rats used in the experiments were not evidently infected. The animals were maintained in standard conditions for 7 days before being sacrificed.
# LPS (E. coli lipopolisaccharide) (endotoxin; 055:B5 serum-type; Sigma Chemical Co., St. Louis, Mo.) was dissolved in saline sterile solution and was administered by intraperitoneal injection (i.p.) at a dose of 6 mg/kg (1 ml/kg). Analogously the saline solution and/or the carrier (saline solution+0.5% Tween 20) were injected into the control animals.
# Compound Administration (Prophylactic Treatment)
# Each compound was administered by i.p. injection twice a day for 6 days, the 7th day 1 hour before and 5 hours after LPS administration. The compounds were suspended with 0.5% Tween 20 in the saline solution.
# After 24 hours from the LPS injection rats were sacrificed with an overdose of nembutal (100 mg/kg i.p.). The trachea was incannulated and the lung was washed by instilling two 5 ml aliquots of PBS (phosphate buffer saline) at 37° C. and the fluid was immediately removed. The fluid was again injected and the procedure was altogether repeated three times for each aliquot.
# Cell Counting and Differentiation
# 200 μl of BALF (bronchoalveolar lavage fluid) were diluted in 1 ml of cold water and 19 ml of Isoton. The overall number of cells was counted twice by using Contraves autolyser 800. When the total number was lower than 2000, BALFs were centrifugated at 800 rpm for 10 minutes in order to separate the cells from the supernatant. The supernatants were discharged and the cells resuspended in a small amount of PBS. For the cytological evaluation, 50 μl of the solution with the resuspended cells were centrifugated for 1 minute at 1300 rpm by using a Shandon Cytospin centrifuge. The slides were fixed in acetone and dyed with DiffQuick. The differential counts of cells were performed on each slide by counting 200 cells at random; cellular types were classified as neutrophils, eosinophils and mononuclear cells according to morphological standard criteria.
# [2] = Homo sapiens, ECV-304, LPS 0.66 μg/ml
IC50 (IL-8 release; LPS 0.66 μg/ml),IC50 (IL-8 release; [2]),Molecule,IL-8 release efficacy (%) (IL-8 release; LPS 0.66 μg/ml),IC50 (superoxide anion release),Inhibition (%) [1],"IC50 (superoxide anion release; Homo sapiens, Neutrophil)"
12 µM,,3′-de(dimethylamino)-erythromycin A (E)-9-O-[2-methoxy-ethoxy]-methyl]-oxime] [Compound 5],55 ± 0.9%,> 100 µM,,
,,3′-de(dimethylamino)-erythromycin A (E)-9-[O-[2-[6-[(thiazol-2-ylmethyl)-amino]-hexyl-amino]-ethyl]-oxime] [Compound 8],19 ± 1%,3.5 ± 0.2 µM,,
7.7 ± 0.3 µM,,3′-de(dimethylamino)-erythromycin A (E)-9-[O-[2-[(6-amino-hexyl)-amino]-ethyl]-oxime] [Compound 6],37 ± 10%,9.9 ± 0.69 µM,−11%,
,,3′-de(dimethylamino)erythromycin A (E)-9-[O-[2-[6-(benzylamino)-hexylamino]-ethyl]-oxime] [Compound 9],,3.5 ± 0.5 µM,−96%,
,,"CCC1OC(=O)C(C)C(OC2CC(C)(OC)C(O)C(C)O2)C(C)C(OC2OC(C)C=CC2O)C(C)(O)CC(C)C(=NO)C(C)C(O)C1(C)O (stereo not shown) [Compound 1, 3′-de(dimethylamino)-3′,4′-dehydro-erythromycin A Oxime]",29%,35.3 ± 5.4 µM,,
,,"CC[C@H]1OC(=O)[C@H](C)[C@@H](O[C@H]2C[C@@](C)(OC)[C@@H](O)[C@H](C)O2)[C@H](C)[C@@H](O[C@@H]2O[C@H](C)CC[C@H]2O)[C@](C)(O)C[C@@H](C)C(=NO)[C@H](C)[C@@H](O)[C@]1(C)O [Compound 2, 3′-de(dimethylamino)-erythromycin A Oxime]",29%,11.4 ± 2.9 µM,−31%,
,,"CCC1OC(=O)C(C)C(OC2CC(C)(OC)C(O)C(C)O2)C(C)C(OC2OC(C)CCC2O)C(C)(O)CC(C)C(=NOCCOCCNCc2ccccc2)C(C)C(O)C1(C)O (stereo not shown) [Compound 11, 3′-de(dimethylamino)-erythromycin A (E)-9-[O-[2-[2-(benzylaminol)-ethoxy]-ethyl]-oxime]]",22 ± 4%,5 µM,,
,,"CCC1OC(=O)C(C)C(OC2CC(C)(OC)C(O)C(C)O2)C(C)C(OC2OC(C)CCC2O)C(C)(O)CC(C)C(=NOCCNCCNCc2nccs2)C(C)C(O)C1(C)O (stereo not shown) [Compound 16, 3′-de(dimethylamino)-erythromycin A (E)-9-[O-[2-[2-[(thiazol-2-ylmethyl)-amino]-ethyl-amino]-ethyl]-oxime]]",35%,14.3 µM,,
,8.9 ± 3.2 µM,"CC[C@H]1OC(=O)[C@H](C)[C@@H](O[C@H]2C[C@@](C)(OC)[C@@H](O)[C@H](C)O2)[C@H](C)[C@@H](O[C@@H]2O[C@H](C)C[C@H](N(C)C)[C@H]2O)[C@](C)(OC)C[C@@H](C)C(=O)[C@H](C)[C@@H](O)[C@]1(C)O [clarithromycin, reference compound]",48 ± 6%,,−47%,49.2 ± 1.9 µM
,,"CC[C@H]1OC(=O)[C@H](C)[C@@H](O[C@H]2C[C@@](C)(OC)[C@@H](O)[C@H](C)O2)[C@H](C)[C@@H](O[C@@H]2O[C@H](C)C[C@H](N(C)C)[C@H]2O)[C@](C)(O)C[C@@H](C)C(=O)[C@H](C)[C@@H](O)[C@]1(C)O [erythromycin, reference compound]",27 ± 1%,,−46%,> 100 µM
,5.5 ± 1.5 µM,"CC[C@H]1OC(=O)[C@H](C)[C@@H](O[C@H]2C[C@@](C)(OC)[C@@H](O)[C@H](C)O2)[C@H](C)[C@@H](O[C@@H]2O[C@H](C)C[C@H](N(C)C)[C@H]2O)[C@](C)(O)C[C@@H](C)/C(=N\OCOCCOC)[C@H](C)[C@@H](O)[C@]1(C)O [roxithromycin, reference compound]",43 ± 6%,,−50%,89 ± 5 µM
